ChEMBL document CHEMBL1201862, “PubChem BioAssay data set” (2004)
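Five compound concentrations were applied to cells in 96-well plates for 48 hours; endpoints were derived by simple linear interpolation of the resulting dose-response curve. GI50 marks 50% less growth.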 Calls of active or inactive are those of the source. Cut-off read from the data, not from the text of the source: active = GI50 up to about 1.1 µM and inactive = higher.

What was measured:
Test in all cases: inhibition of tumour cell growth, NCI panel, 48 h
[1] = test system: A498
[2] = test system: ACHN
[3] = test system: EKVX
[4] = test system: HCC 2998
[5] = test system: HL-60
[6] = test system: HOP-92
[7] = test system: MOLT-4
[8] = test system: NCI-H226
[9] = test system: NCI-H23
[10] = test system: OVCAR-4
[11] = test system: OVCAR-5
[12] = test system: OVCAR-8
[13] = test system: RPMI-8226
[14] = test system: RXF 393
[15] = test system: SF-268
[16] = test system: SK-MEL-2
[17] = test system: SW-620
[18] = test system: UACC-257

SMILES | GI50 [1] | GI50 [2] | GI50 [3] | GI50 [4] | GI50 [5] | GI50 [6] | GI50 [7] | GI50 [8] | GI50 [9] | GI50 [10] | GI50 [11] | GI50 [12] | GI50 [13] | GI50 [14] | GI50 [15] | GI50 [16] | GI50 [17] | GI50 [18]
C#CCN(Cc1ccc2nc(-c3ccccc3)c(Cl)nc2c1)c1cc(OC)c(OC)c(OC)c1 | > 100 µM (inactive) | 58.2 µM (inactive) | > 100 µM (inactive) | > 100 µM (inactive) | 57.9 µM (inactive) | > 100 µM (inactive) | 83.6 µM (inactive) | > 100 µM (inactive) | > 100 µM (inactive) | > 100 µM (inactive) | > 100 µM (inactive) | > 100 µM (inactive) | 16.1 µM (inactive) | 37.1 µM (inactive) | 40.4 µM (inactive) | > 100 µM (inactive) | 15 µM (inactive) | 39.2 µM (inactive)
Nc1nc(Cl)cc(NCCCCCCCCCCNc2cc(Cl)nc(N)n2)n1 | – | < 0.01 µM (active) | 4 µM (inactive) | 22.8 µM (inactive) | 2.34 µM (inactive) | 28.6 µM (inactive) | – | 1.99 µM (inactive) | 0.415 µM (active) | 8.13 µM (inactive) | 0.043 µM (active) | 12.2 µM (inactive) | 2.18 µM (inactive) | 13.9 µM (inactive) | 3.26 µM (inactive) | 4.93 µM (inactive) | 35.6 µM (inactive) | 1.05 µM (active)
C1CN2N3CCCC23C1 (centres undefined) | > 100 µM (inactive) | > 100 µM (inactive) | > 100 µM (inactive) | > 100 µM (inactive) | > 100 µM (inactive) | – | > 100 µM (inactive) | > 100 µM (inactive) | > 100 µM (inactive) | > 100 µM (inactive) | > 100 µM (inactive) | > 100 µM (inactive) | > 100 µM (inactive) | > 100 µM (inactive) | > 100 µM (inactive) | > 100 µM (inactive) | > 100 µM (inactive) | > 100 µM (inactive)
CN(C)CC(/C(Cc1ccccc1)=N\NC(=O)c1ccncc1)c1ccccc1 (centres undefined) | – | 27.5 µM (inactive) | 23.6 µM (inactive) | 39.1 µM (inactive) | 4.17 µM (inactive) | 19.2 µM (inactive) | – | 71.6 µM (inactive) | 46.8 µM (inactive) | 36.7 µM (inactive) | 83.8 µM (inactive) | 32.8 µM (inactive) | 16.4 µM (inactive) | 28.7 µM (inactive) | 33.4 µM (inactive) | 18.9 µM (inactive) | 35.8 µM (inactive) | 32.3 µM (inactive)
N#Cc1cccnc1Cl | > 100 µM (inactive) | > 100 µM (inactive) | > 100 µM (inactive) | > 100 µM (inactive) | > 100 µM (inactive) | > 100 µM (inactive) | > 100 µM (inactive) | > 100 µM (inactive) | > 100 µM (inactive) | > 100 µM (inactive) | > 100 µM (inactive) | > 100 µM (inactive) | > 100 µM (inactive) | > 100 µM (inactive) | > 100 µM (inactive) | > 100 µM (inactive) | > 100 µM (inactive) | > 100 µM (inactive)
O=C1Cc2ccccc2N1/N=C\c1ccc(O)cc1 | > 100 µM (inactive) | 53.7 µM (inactive) | 82.2 µM (inactive) | > 100 µM (inactive) | – | > 100 µM (inactive) | 13.4 µM (inactive) | > 100 µM (inactive) | 71.1 µM (inactive) | > 100 µM (inactive) | > 100 µM (inactive) | > 100 µM (inactive) | 58.1 µM (inactive) | – | 50.6 µM (inactive) | > 100 µM (inactive) | > 100 µM (inactive) | 47 µM (inactive)
CC(C)COC(=O)c1ccc(/N=C\c2ccc(/C=N/c3ccc(C(=O)OCC(C)C)cc3)cc2)cc1 | – | > 100 µM (inactive) | – | > 100 µM (inactive) | > 100 µM (inactive) | > 100 µM (inactive) | > 100 µM (inactive) | > 100 µM (inactive) | 96.6 µM (inactive) | > 100 µM (inactive) | > 100 µM (inactive) | > 100 µM (inactive) | > 100 µM (inactive) | – | > 100 µM (inactive) | > 100 µM (inactive) | > 100 µM (inactive) | > 100 µM (inactive)
COc1cc(/C=C(\NC(=O)c2ccccc2)c2nc3cncnc3[nH]2)cc(OC)c1OC | – | > 100 µM (inactive) | > 100 µM (inactive) | > 100 µM (inactive) | > 100 µM (inactive) | 88.1 µM (inactive) | > 100 µM (inactive) | – | > 100 µM (inactive) | > 100 µM (inactive) | > 100 µM (inactive) | > 100 µM (inactive) | – | > 100 µM (inactive) | > 100 µM (inactive) | > 100 µM (inactive) | > 100 µM (inactive) | –
CNc1nc(N)cc(O)n1 | > 100 µM (inactive) | > 100 µM (inactive) | > 100 µM (inactive) | > 100 µM (inactive) | > 100 µM (inactive) | – | > 100 µM (inactive) | > 100 µM (inactive) | > 100 µM (inactive) | > 100 µM (inactive) | > 100 µM (inactive) | > 100 µM (inactive) | > 100 µM (inactive) | – | > 100 µM (inactive) | > 100 µM (inactive) | > 100 µM (inactive) | > 100 µM (inactive)
O=C(CCc1ccccc1)On1nnc2ccccc2c1=O | 38.3 µM (inactive) | > 100 µM (inactive) | > 100 µM (inactive) | > 100 µM (inactive) | > 100 µM (inactive) | > 100 µM (inactive) | > 100 µM (inactive) | > 100 µM (inactive) | > 100 µM (inactive) | > 100 µM (inactive) | > 100 µM (inactive) | > 100 µM (inactive) | – | > 100 µM (inactive) | > 100 µM (inactive) | > 100 µM (inactive) | > 100 µM (inactive) | > 100 µM (inactive)
C/C(=N\NS(=O)(=O)c1ccc(C)cc1)c1ccc[n+]([O-])n1 | > 100 µM (inactive) | > 100 µM (inactive) | > 100 µM (inactive) | > 100 µM (inactive) | 26.9 µM (inactive) | 32.3 µM (inactive) | 56.9 µM (inactive) | – | > 100 µM (inactive) | > 100 µM (inactive) | > 100 µM (inactive) | 99.3 µM (inactive) | 36.8 µM (inactive) | – | > 100 µM (inactive) | – | 32.1 µM (inactive) | > 100 µM (inactive)
O=C1C2c3[nH]c4ccccc4c3C3CCCC3C2C(=O)N1c1ccccc1 (centres undefined) | > 100 µM (inactive) | > 100 µM (inactive) | > 100 µM (inactive) | > 100 µM (inactive) | – | – | > 100 µM (inactive) | – | > 100 µM (inactive) | 17.1 µM (inactive) | – | 61.8 µM (inactive) | > 100 µM (inactive) | > 100 µM (inactive) | > 100 µM (inactive) | – | 74.1 µM (inactive) | –
O=[PH](O)c1ccccn1 | > 100 µM (inactive) | > 100 µM (inactive) | > 100 µM (inactive) | > 100 µM (inactive) | > 100 µM (inactive) | > 100 µM (inactive) | > 100 µM (inactive) | > 100 µM (inactive) | > 100 µM (inactive) | > 100 µM (inactive) | > 100 µM (inactive) | > 100 µM (inactive) | > 100 µM (inactive) | > 100 µM (inactive) | > 100 µM (inactive) | – | > 100 µM (inactive) | > 100 µM (inactive)
COc1ccc(OC)c(N2CC(N)C2=O)c1 (centres undefined) | > 100 µM (inactive) | > 100 µM (inactive) | > 100 µM (inactive) | > 100 µM (inactive) | > 100 µM (inactive) | > 100 µM (inactive) | > 100 µM (inactive) | > 100 µM (inactive) | > 100 µM (inactive) | > 100 µM (inactive) | – | > 100 µM (inactive) | > 100 µM (inactive) | > 100 µM (inactive) | > 100 µM (inactive) | > 100 µM (inactive) | > 100 µM (inactive) | > 100 µM (inactive)
C[C@H](CCC1SC1(C)C)C1CCC2(C)C3=C(CC[C@]12C)[C@@]1(C)CC[C@H](O)C(C)(C)C1CC3 (some centres undefined) | > 100 µM (inactive) | 61 µM (inactive) | > 100 µM (inactive) | > 100 µM (inactive) | > 100 µM (inactive) | > 100 µM (inactive) | > 100 µM (inactive) | > 100 µM (inactive) | > 100 µM (inactive) | > 100 µM (inactive) | > 100 µM (inactive) | > 100 µM (inactive) | > 100 µM (inactive) | > 100 µM (inactive) | > 100 µM (inactive) | > 100 µM (inactive) | > 100 µM (inactive) | > 100 µM (inactive)
C[C@@]1(Cc2ccccc2)C(=O)N2[C@@H](CO)C(c3ccccc3)O[C@]2(C)c2ccccc21 (some centres undefined) | – | > 100 µM (inactive) | > 100 µM (inactive) | – | > 100 µM (inactive) | > 100 µM (inactive) | 32.3 µM (inactive) | > 100 µM (inactive) | > 100 µM (inactive) | > 100 µM (inactive) | > 100 µM (inactive) | > 100 µM (inactive) | 76 µM (inactive) | > 100 µM (inactive) | > 100 µM (inactive) | > 100 µM (inactive) | 91.6 µM (inactive) | –
O=C1c2ccccc2C(=O)c2c1ccc(O)c2O [ATHRAQUINONES A] | 39.5 µM (inactive) | 34.8 µM (inactive) | 26.9 µM (inactive) | 33.1 µM (inactive) | – | 38.6 µM (inactive) | 32.4 µM (inactive) | 94.8 µM (inactive) | 41.6 µM (inactive) | 32.1 µM (inactive) | > 100 µM (inactive) | 31.3 µM (inactive) | 36.5 µM (inactive) | 40.8 µM (inactive) | 32 µM (inactive) | 43 µM (inactive) | 37.9 µM (inactive) | 71.1 µM (inactive)
